Assay results: patent US9056108B2, “Method of treating atrial fibrillation” (Gilead Sciences, Inc., priority 2009, dated 2015)

What was measured:
[1] = tested on: female rabbit isolated heart treated with E-4031; assay: Torsades de pointes in rabbit isolated heart treated with E-4031; conditions: E-4031 60 nM; dronedarone 10 μM
Experimental: Each rabbit was sedated using intramuscular injections of 6 mg/kg xylazine and 40 mg/kg ketamine and then anesthetized using a “cocktail” of ketamine (15 mg/kg)+xylazine (4 mg/kg) in 1.5 ml saline. The ketamine/xylazine cocktail was administered as an i.v. bolus via the marginal ear vein. After anesthesia was confirmed, the thorax was opened and the heart was quickly excised. The heart was placed in a modified Krebs-Henseleit (K-H) physiological saline solution at room temperature. […] CPP was measured (with a Biopac MP 150 pressure transducer, Goleta, Calif.) from a side port of the aortic catheter. To facilitate exit of fluid from the chamber of the left ventricle (LV), the leaflets of the mitral valve were trimmed with fine spring-handled scissors. The right atrial wall was partially removed.
Complete AV block was induced by thermo-ablation of the AV nodal area. […] A bipolar Teflon-coated electrode was placed on the right ventricular septum to pace the heart. Electrical stimuli 3 ms in width and 3-fold threshold amplitude were delivered to the pacing electrode at a frequency of 1 Hz throughout the experiments using a Grass S48 stimulator (W. Warwick, R.I.).
After initiation of ventricular pacing, a 30-40 min equilibration delay was allowed for heart rate (and CPP) to achieve a steady state, an essential experimental condition for recording a good quality monophasic action potential (MAP) recording.
Monophasic action potential (MAP) and ECG electrodes from Harvard Apparatus Inc. (Holliston, Mass.) were used to record heart rate (in beats per minute, or bpm), left ventricular MAPs and a bipolar ECG MAP electrodes were pressure contact Ag—AgCl cells attached to a circular holder with springs to keep the electrodes in contact with the LV epicardial surface. Two MAP electrodes were placed on the epicardial ventricular free wall below the level of the atrial-ventricular valves, one at the base to record a basal MAP and one at the apex to record an apical MAP. […] Signals were saved on a computer hard disk for subsequent analysis. Bipolar electrocardiograms (ECG) were generated using an isolated-heart ECG apparatus (Harvard Apparatus, Holliston, Mass.) attached to Biopac amplifier system.

[2] = tested on: coronary-perfused canine left ventricular (LV) preparations; assay: Electrophysiology in isolated coronary-perfused canine left ventricular preparations; conditions: current in vitro investigation
Experimental: Experiments were performed using isolated coronary-perfused canine right atrial (RA) and left ventricular (LV) preparations (≈3×1.5×1 cm). Isolation and perfusion of the preparations were as previously described.^9, 15, 16 Briefly, preparations were dissected from hearts removed from anesthetized (sodium pentobarbital) adult mongrel dogs (20-30 kg). Unfolded RA with attached rim of the right ventricle was cannulated and perfused with cold cardioplegic solution (4-8° C.) through the ostium of the right coronary artery; the LV wedge was perfused through a diagonal branch of the left anterior descending coronary artery. Unperfused tissue was removed with a razor blade. […]
Transmembrane action potential (AP) recordings were obtained using floating glass microelectrodes at a sampling rate of 40 kHz. A pseudo-electrocardiogram (ECG) was recorded using two electrodes consisting of Ag/AgCl half cells placed in the Tyrode's solution bathing the preparation, 1.0 to 1.5 cm from the two opposite sides of the atrial or ventricular coronary-perfused preparations. […] Diastolic threshold of excitation (DTE) was determined by increasing stimulus intensity in 0.01 mA steps. Effective refractory period (ERP) was measured by delivering premature stimuli at progressively shorter S1-S2 intervals after every 10 basic beats at a pacing cycle length (CL) of 500 ms (5 ms steps; 2 times DTE). […]

## CCCCc1oc2ccc(NS(C)(=O)=O)cc2c1C(=O)c1ccc(OCCCN(CCCC)CCCC)cc1 [Dronedarone, N-(2-Butyl-3-(p-(3-(dibutylamino)propoxy)benzoyl)-5-benzofuranyl)methanesulfonamide]
[1]
  Occurrences of torsades de pointes (TdP) (hearts): 1/6
[2]
  Prolongation of ventricular ERP: 4%
